Counter-ions that a name gives are not always drawn.
Experiments:
[1] = biological target: T1, furin (endogenous protease) in U20S cells (Homo sapiens, UniProt P09958); test: Furin cell-based assay (image-based, Golgi-targeted GFP with BMP10 furin/PCSK cleavage site); conditions: 24-hour incubation, read-out: furin golgi cell pXC50 (converted);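 also: Read-out is mean GFP fluorescence of Golgi puncta per cell by high-content imaging, retained when furin inhibited, over an eleven-point 0.00017–10 µM series, four-parameter fit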
T1 construct: the endogenous protease cleaves GFP; endogenous in cells; host or cells: U2OS cells transduced with a BacMam reporter

[2] = biological target: T2, Furin (108-574-Tev-Flag-His) enzyme (Homo sapiens, UniProt P09958); test: Furin enzyme assay; type: biochemical; conditions: for IC50: read-out: furin enzyme pIC50 (converted)
T2 construct: Furin (108-574-Tev-Flag-His) enzyme was expressed and purified from CHO cells; TEV cleavage site (C); FLAG (C); His (C); made in house; host or cells: CHO cells
Summary of the method: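 CHO-expressed, purified furin construct at 40 pM in 100 mM HEPES pH7.5, 1 mM CaCl2, 0.005% Triton X-100. Eleven-point 1:3 series, 0.00017–10 μM final, incubated 2 h at room temperature and read on Envision. pXC50 from four-parameter fit.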

T2 sequence (P09958 108-574): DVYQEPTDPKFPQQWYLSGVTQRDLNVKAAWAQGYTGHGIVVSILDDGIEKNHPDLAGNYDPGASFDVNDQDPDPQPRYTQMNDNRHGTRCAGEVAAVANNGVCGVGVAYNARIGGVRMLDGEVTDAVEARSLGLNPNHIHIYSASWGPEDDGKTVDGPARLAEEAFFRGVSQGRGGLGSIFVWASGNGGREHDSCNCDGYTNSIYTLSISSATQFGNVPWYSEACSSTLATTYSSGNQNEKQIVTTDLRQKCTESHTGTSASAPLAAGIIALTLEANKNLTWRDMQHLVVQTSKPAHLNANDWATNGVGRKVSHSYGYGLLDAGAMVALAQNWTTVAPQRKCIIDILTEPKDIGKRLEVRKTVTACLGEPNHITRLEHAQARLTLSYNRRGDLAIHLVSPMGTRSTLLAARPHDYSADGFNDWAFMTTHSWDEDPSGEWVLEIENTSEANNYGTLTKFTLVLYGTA
T1 sequence (P09958 108-794): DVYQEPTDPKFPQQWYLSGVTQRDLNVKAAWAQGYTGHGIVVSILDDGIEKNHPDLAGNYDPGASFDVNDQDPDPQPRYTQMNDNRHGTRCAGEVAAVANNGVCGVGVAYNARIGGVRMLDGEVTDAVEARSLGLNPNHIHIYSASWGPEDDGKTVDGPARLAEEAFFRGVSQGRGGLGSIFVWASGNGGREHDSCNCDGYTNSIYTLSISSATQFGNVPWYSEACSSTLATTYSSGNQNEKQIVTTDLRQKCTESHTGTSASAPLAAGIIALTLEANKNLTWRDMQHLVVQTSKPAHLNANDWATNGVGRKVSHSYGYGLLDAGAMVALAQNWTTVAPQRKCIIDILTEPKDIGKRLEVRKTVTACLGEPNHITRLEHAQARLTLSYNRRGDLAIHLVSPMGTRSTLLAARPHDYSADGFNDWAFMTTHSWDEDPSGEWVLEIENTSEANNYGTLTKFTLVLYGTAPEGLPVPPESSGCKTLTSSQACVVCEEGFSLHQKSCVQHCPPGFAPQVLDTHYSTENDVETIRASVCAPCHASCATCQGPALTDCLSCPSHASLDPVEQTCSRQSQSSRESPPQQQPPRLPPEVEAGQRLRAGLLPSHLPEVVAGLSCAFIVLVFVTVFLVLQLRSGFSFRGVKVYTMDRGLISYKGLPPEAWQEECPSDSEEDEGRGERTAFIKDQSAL

Compound | EC50 [1] [nM] | furin enzyme pIC50 [2] | IC50 [2] [nM]
CC(=O)NCC1CCN(Cc2cc(Oc3ccc(N)cc3)cc(-c3cc(Cl)cc(Cl)c3)c2)CC1 [Example 42, N-((1-((5-(4-Aminophenoxy)-3′,5′-dichloro-[1,1′-biphenyl]-3-yl)methyl)piperidin-4-yl)methyl)acetamide] | 316 | 7.7 | –
CN1CCN(c2ccc(Oc3cc(CN4CCC(CC(=O)O)CC4)cc(-c4cc(Cl)cc(Cl)c4)n3)cn2)CC1 [Example 212, 2-(1-((2-(3,5-dichlorophenyl)-6-((6-(4-methylpiperazin-1-yl)pyridin-3-yl)oxy)pyridin-4-yl)methyl)piperidin-4-yl)acetic acid] | 31.6 | 9 | –
COC(=O)NCC1CCN(Cc2cc(Oc3cnc(N4CCNCC4)nc3)nc(-c3cc(Cl)cc(Cl)c3)c2)CC1 [Example 49, Methyl((1-((2-(3,5-dichlorophenyl)-6-((2-(piperazin-1-yl)pyrimidin-5-yl)oxy)pyridin-4-yl)methyl)piperidin-4-yl)methyl)carbamate, 4 hydrochloride] | 20 | 9.1 | –
CNC(=O)OCC1CCN(Cc2cc(Oc3cnc(N4CCN(CCCS(C)(=O)=O)CC4)nc3)nc(-c3cc(Cl)cc(Cl)c3)c2)CC1 [Example 210, (1-((2-(3,5-dichlorophenyl)-6-((2-(4-(3-(methylsulfonyl)propyl)piperazin-1-yl)pyrimidin-5-yl)oxy)pyridin-4-yl)methyl)piperidin-4-yl)methyl methylcarbamate] | 3.98 | 8.7 | –
COC(=O)NCC1CCN(Cc2cc(Oc3cnc(N4CC5CCC(C4)N5CCC(=O)O)nc3)nc(-c3cc(Cl)cc(Cl)c3)c2)CC1 [Example 56, 3-(3-(5-((6-(3,5-dichlorophenyl)-4-((4-(((methoxycarbonyl)amino)methyl)piperidin-1-yl)methyl)pyridin-2-yl)oxy)pyrimidin-2-yl)-3,8-diazabicyclo[3.2.1]octan-8-yl)propanoic acid] | 5.01 | – | 0.0316
CC(=O)NCC1CCN(Cc2cc(Oc3ccc(NCC(C)(C)N)nc3)cc(-c3cc(Cl)cc(Cl)c3)c2)CC1 [Example 105, N-((1-((5-((6-((2-Amino-2-methylpropyl)amino)pyridin-3-yl)oxy)-3′,5′-dichloro-[1,1′-biphenyl]-3-yl)methyl)piperidin-4-yl)methyl)acetamide, 3 hydrochloride] | 126 | 9 | –
CC(=O)NCC1CCN(Cc2cc(Oc3cnc(N4CCN(C[C@@H](C)O)CC4)nc3)nc(-c3cc(Cl)cc(Cl)c3)c2)CC1 [Example 302] | 7.94 | 9.6 | –
NC(=O)CCN1CCN(Cc2cc(Oc3cnc(N4CCN(CCC(=O)O)CC4)nc3)nc(-c3cc(Cl)cc(Cl)c3)c2)CC1 [Example 78, 3-(4-(5-((4-((4-(3-Amino-3-oxopropyl)piperazin-1-yl)methyl)-6-(3,5-dichlorophenyl)pyridin-2-yl)oxy)pyrimidin-2-yl)piperazin-1-yl)propanoic acid] | 63.1 | 8 | –
CC(=O)NCC1CCN(Cc2cc(Oc3cnc(N4CCCNCC4)nc3)nc(-c3cc(Cl)cc(Cl)c3)c2)CC1 [Example 118, N-((1-((2-((2-(1,4-Diazepan-1-yl)pyrimidin-5-yl)oxy)-6-(3,5-dichlorophenyl)pyridin-4-yl)methyl)piperidin-4-yl)methyl)acetamide] | 15.8 | 8.7 | –
CC(=O)NCC1CCN(Cc2cc(Oc3cnc(N4CCN(CCB(O)O)CC4)nc3)nc(-c3cc(Cl)cc(Cl)c3)c2)CC1 [Example 319, (2-(4-(5-((4-((4-(Acetamidomethyl)piperidin-1-yl)methyl)-6-(3,5-dichlorophenyl)pyridin-2-yl)oxy)pyrimidin-2-yl)piperazin-1-yl)ethyl)boronic acid, 4 hydrochloride] | 1 | 8.9 | –
O=C(O)CCC1CCN(Cc2cc(Oc3ccc(N4CCNCC4)nc3)nc(-c3cc(Cl)cc(Cl)c3)c2)CC1 [Example 3, 3-(1-((2-(3,5-Dichlorophenyl)-6-((6-(piperazin-1-yl)pyridin-3-yl)oxy)pyridin-4-yl)methyl)piperidin-4-yl)propanoic acid, 4 hydrochloride] | 50.1 | 8.9 | –
CNC(=O)NCC1CCN(Cc2cc(Oc3ccc(N4CCN(CCS(C)(=O)=O)CC4)nc3)nc(-c3cc(Cl)cc(Cl)c3)c2)CC1 [Example 290, 1-((1-((2-(3,5-dichlorophenyl)-6-((6-(4-(2-(methylsulfonyl)ethyl)piperazin-1-yl)pyridin-3-yl)oxy)pyridin-4-yl)methyl)piperidin-4-yl)methyl)-3-methylurea] | 15.8 | 8.2 | –
CN1CCCN(c2ccc(Oc3cc(CN4CCC(CC(=O)O)CC4)cc(-c4cc(Cl)cc(Cl)c4)n3)cn2)CC1 [Example 156, 2-(1-((2-(3,5-Dichlorophenyl)-6-((6-(4-methyl-1,4-diazepan-1-yl)pyridin-3-yl)oxy)pyridin-4-yl)methyl)piperidin-4-yl)acetic acid] | 15.8 | 8.8 | –
CNC(=O)CCN1CCN(c2ncc(Oc3cc(CN4CCC(CNC(C)=O)CC4)cc(-c4cc(Cl)cc(Cl)c4)n3)cn2)CC1 [Example 94, 3-(4-(5-((4-((4-(Acetamidomethyl)piperidin-1-yl)methyl)-6-(3,5-dichlorophenyl)pyridin-2-yl)oxy)pyrimidin-2-yl)piperazin-1-yl)-N-methylpropanamide, 4 hydrochloride] | 5.01 | 8.9 | –
CC(=O)NCC1CCN(Cc2cc(Oc3cnc(N4CCN(CC(C)(C)O)CC4)nc3)nc(-c3cc(Cl)cc(Cl)c3)c2)CC1 [Example 303, N-((1-((2-(3,5-dichlorophenyl)-6-((2-(4-(2-hydroxy-2-methylpropyl)piperazin-1-yl)pyrimidin-5-yl)oxy)pyridin-4-yl)methyl)piperidin-4-yl)methyl)acetamide] | 2.51 | 9.2 | –
CC(C)N(c1cnc(N2CCN(C)CC2)nc1)c1cc(CN2CCC(CC(=O)O)CC2)cc(-c2cc(Cl)cc(Cl)c2)n1 [Example 375, 2-(1-((2-(3,5-Dichlorophenyl)-6-(isopropyl(2-(4-methylpiperazin-1-yl)pyrimidin-5-yl)amino)pyridin-4-yl)methyl)piperidin-4-yl)acetic acid] | 251 | 7.9 | –
CC(=O)NCC1CCN(Cc2cc(Oc3ccc(N4CC[N+](C)(C)CC4)nc3)nc(-c3cc(Cl)cc(Cl)c3)c2)CC1.[Cl-] [Example 181, 4-(5-((4-((4-(Acetamidomethyl)piperidin-1-yl)methyl)-6-(3,5-dichlorophenyl)pyridin-2-yl)oxy)pyridin-2-yl)-1,1-dimethylpiperazin-1-ium chloride] | 79.4 | 9 | –
CC(=O)NCC1CCN(Cc2cc(Oc3cnc(N4CCN(C(C)CC(=O)O)CC4)nc3)nc(-c3cc(Cl)cc(Cl)c3)c2)CC1 (stereo not drawn) [Example 282, 3-(4-(5-((4-((4-(acetamidomethyl)piperidin-1-yl)methyl)-6-(3,5-dichlorophenyl)pyridin-2-yl)oxy)pyrimidin-2-yl)piperazin-1-yl)butanoic acid] | 7.94 | – | 0.2

— patent US11773078B2, “Furin inhibitors” (Glaxosmithkline Intellectual Property Development Limited, priority 2018, dated 2023)
